Laboratory results reported in EP0745595A1, “3-(3-Aryloxyphenyl)-1-(substituted methyl)-s-triazine-2,4,6-oxo or thiotrione herbicidal agents” (American Cyanamid Company, priority 1995, dated 1996).

How the values were obtained:
Format in all cases: in vivo
IPOMOEA SPP. = test: Postemergence herbicidal evaluation, IPOSS (Morningglory spp.);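 also: higher means more injury with 8 approaching complete kill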
Procedure, shortened: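 In this greenhouse postemergence herbicide test on Ipomoea spp. (morningglory), compounds in 50/50 acetone/water with 0.5% TWEEN®20 were sprayed at 40 psi onto seedlings about two weeks old grown in jiffy flats. After four to five weeks, injury was scored on a 0-9 scale covering stand, vigor, malformation, size, chlorosis and overall appearance versus control, with repeat tests averaged.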

CHENOPODIUM ALBUM, L. [1] = test: Postemergence herbicidal evaluation, CHEAL (Lambsquarters, Common);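 also: higher means more injury with 8 approaching complete kill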
Procedure, shortened: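 Postemergence herbicidal activity on Chenopodium album was tested by spraying two-week-old seedlings grown in jiffy flats with compound in acetone/water (50/50) plus 0.5% TWEEN®20, using a 40 psi nozzle. Four to five weeks after treatment, stand, vigor, malformation, size, chlorosis and overall appearance were scored 0-9 relative to controls, with repeat tests averaged.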

ZEA MAYS L. = test: Postemergence herbicidal evaluation, ZEAMX (Corn, Field);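 also: higher means more injury with 8 approaching complete kill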
Procedure, shortened: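 This greenhouse postemergence test treated corn plants about two weeks old. Compounds in a 50/50 acetone/water mixture with 0.5% TWEEN®20 were applied through a spray nozzle at 40 psi. After four to five weeks, injury was scored 0-9 against an untreated control, judging stand, vigor, malformation, size, chlorosis and overall appearance. Repeated tests were averaged.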

[2] = tested on: ORYZA SATIVA, L. TEBONNET; test: Rice tolerance to post-transplant applications under flooded paddy conditions, ORYSAT (Rice, Tebonnet); settings: post-transplanted rice
Procedure, shortened: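 Greenhouse pots of silt loam, each with two transplanted ten-day-old seedlings, are held under 1.5 to 3 cm of standing water. Three days later the compound is applied to the flooded surface at about 0.5, 0.25, 0.125 or 0.063 kg/ha. Damage is scored visually 0-9 after 3-4 weeks.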

CHENOPODIUM ALBUM, L. [3] = test: Preemergence herbicidal evaluation, CHEAL (Lambsquarters, Common);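 also: higher means more injury with 8 approaching complete kill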
Procedure, shortened: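 Seeds mixed with potting soil were planted on about one inch of soil in cups, then sprayed with aqueous acetone solution of test compound at about 0.125 to 0.50 kg per hectare. Plants grown under greenhouse conditions; visual rating on a 0-9 scale versus untreated control at 4-5 weeks.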

GALIUM APARINE = test: Postemergence herbicidal evaluation, GALAP (Galium); parameters: key to GALAP rating / Herbicidal effect rating, GALAP / GALAP: 0-9 visual rating scale vs untreated control;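 also: higher means more injury with 8 approaching complete kill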
Procedure, shortened: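 In this postemergence greenhouse test, two-week-old Galium aparine seedlings grown in jiffy flats received a 40 psi spray of compound in acetone/water (50/50) with 0.5% TWEEN®20 surfactant. After four to five weeks, stand, vigor, malformation, size, chlorosis and overall appearance were compared with untreated controls on a 0-9 scale, averaging multiple tests.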

[4] = tested on: AMBROSIA ARTEMISIIFOLIA, L.; test: Postemergence herbicidal evaluation, AMBEL (Ragweed, Common);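 also: higher means more injury with 8 approaching complete kill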
Procedure, shortened: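 Postemergence herbicidal activity on AMBEL (common ragweed) was assessed on two-week-old seedlings grown in jiffy flats. Treatment solutions of 50/50 acetone/water with 0.5% TWEEN®20 surfactant were sprayed at 40 psi. After four to five weeks in the greenhouse, plants were scored 0-9 against a control for stand, vigor, malformation, size, chlorosis and overall appearance, with multiple tests averaged.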

[5] = tested on: ABUTILON THEOPHRASTI, MEDIC.; test: Postemergence herbicidal evaluation, ABUTH (Velvetleaf);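 also: higher means more injury with 8 approaching complete kill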
Procedure, shortened: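 This postemergence herbicide test used two-week-old velvetleaf seedlings grown in jiffy flats. Each compound was sprayed at 40 psi as a dispersion in 50/50 acetone/water with 0.5% TWEEN®20 surfactant. Plants then received routine greenhouse care. After four to five weeks, injury was scored visually on a 0-9 scale against a control, and replicate tests were averaged.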

CASSIA OBTUSIFOLIA, L. = test: Postemergence herbicidal evaluation, CASOB (Sicklepod); parameters: key to CASOB rating / Herbicidal effect rating, CASOB / CASOB: 0-9 visual rating scale vs untreated control;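 also: higher means more injury with 8 approaching complete kill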
Procedure, shortened: (§1)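 Ratings (0-9) reflect visual stand, vigor, malformation, size and chlorosis compared with untreated plants, assessed 4-5 weeks after postemergence spraying. Treatment was applied to roughly two-week-old seedlings at about 0.125-0.500 kg/ha in acetone/water with 0.5% Tween 20; replicate tests were averaged.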

[6] = tested on: TRITICUM AESTIVUM, CV. APOLLO; test: Postemergence herbicidal evaluation, TRZAWO (Wheat, Winter, CV. APOLLO);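 also: higher means more injury with 8 approaching complete kill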
Procedure, shortened: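 This greenhouse postemergence test applied compounds to roughly two-week-old wheat seedlings grown in jiffy flats. The spray solution was 50/50 acetone/water with 0.5% TWEEN®20, a polyoxyethylene sorbitan monolaurate, sprayed from a nozzle run at 40 psi. After four to five weeks of standard greenhouse care, injury was scored from 0 to 9 by comparing stand, vigor, malformation, size, chlorosis and overall appearance with a control. Multiple tests were averaged.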

[7] = tested on: ECHINOCHLOA CRUS-GALLI, (L) BEAU; test: Postemergence herbicidal evaluation, ECHCG (Barnyardgrass); parameters: key to ECHCG rating / Herbicidal effect rating, ECHCG / ECHCG: 0-9 visual rating scale vs untreated control
Procedure, shortened: as §1

`Cn1c(=O)[nH]c(=O)n(-c2cc(Oc3ccc(C(F)(F)F)cc3Cl)ccc2Cl)c1=O` [F, reference compound] was tested, and the IPOSS (IPOMOEA SPP.; Rate 0.016 kg/ha) was 3.0, the IPOSS (IPOMOEA SPP.; Rate 0.032 kg/ha) was 4.0 and the IPOSS (IPOMOEA SPP.; Rate 0.063 kg/ha) was 6.0. The IPOSS (IPOMOEA SPP.; Rate 0.125 kg/ha) was 5.0, the IPOSS (IPOMOEA SPP.; Rate 0.250 kg/ha) was 6.0 and the IPOSS (IPOMOEA SPP.; Rate 0.500 kg/ha) was 7.0. It also gave a CHEAL (CHENOPODIUM ALBUM, L. [1]; Rate 0.016 kg/ha) of 4.0, a CHEAL (CHENOPODIUM ALBUM, L. [1]; Rate 0.032 kg/ha) of 5.0 and a CHEAL (CHENOPODIUM ALBUM, L. [1]; Rate 0.063 kg/ha) of 6.0. For the same compound, the CHEAL (CHENOPODIUM ALBUM, L. [1]; Rate 0.125 kg/ha) was 8.0, the CHEAL (CHENOPODIUM ALBUM, L. [1]; Rate 0.250 kg/ha) was 9.0 and the CHEAL (CHENOPODIUM ALBUM, L. [1]; Rate 0.500 kg/ha) was 9.0. The ZEAMX (ZEA MAYS L.; Rate 0.016 kg/ha) was 1.5, the ZEAMX (ZEA MAYS L.; Rate 0.032 kg/ha) was 2.0 and the ZEAMX (ZEA MAYS L.; Rate 0.063 kg/ha) was 2.5. It also gave a ZEAMX (ZEA MAYS L.; Rate 0.125 kg/ha) of 3.0, a ZEAMX (ZEA MAYS L.; Rate 0.250 kg/ha) of 4.0 and a ZEAMX (ZEA MAYS L.; Rate 0.500 kg/ha) of 4.0. For the same compound, the ORYSAT ([2]; Rate 0.031 kg/ha) was 0.0, the ORYSAT ([2]; Rate 0.063 kg/ha) was 0.0 and the ORYSAT ([2]; Rate 0.125 kg/ha) was 1.0. The ORYSAT ([2]; Rate 0.250 kg/ha) was 2.0, the CHEAL (CHENOPODIUM ALBUM, L. [3]; Rate 0.063 kg/ha) was 9.0 and the CHEAL (CHENOPODIUM ALBUM, L. [3]; Rate 0.125 kg/ha) was 9.0. For the same compound, the CHEAL (CHENOPODIUM ALBUM, L. [3]; Rate 0.250 kg/ha) was 9.0, the CHEAL (CHENOPODIUM ALBUM, L. [3]; Rate 0.500 kg/ha) was 9.0 and the GALAP (GALIUM APARINE; Rate 0.016 kg/ha) was 5.0. The GALAP (GALIUM APARINE; Rate 0.032 kg/ha) was 6.0, the GALAP (GALIUM APARINE; Rate 0.063 kg/ha) was 6.0 and the GALAP (GALIUM APARINE; Rate 0.125 kg/ha) was 6.0. It also gave a GALAP (GALIUM APARINE; Rate 0.250 kg/ha) of 8.0, a GALAP (GALIUM APARINE; Rate 0.500 kg/ha) of 6.0 and an AMBEL ([4]; Rate 0.016 kg/ha) of 2.0. The AMBEL ([4]; Rate 0.032 kg/ha) was 3.0, the AMBEL ([4]; Rate 0.063 kg/ha) was 6.0 and the AMBEL ([4]; Rate 0.125 kg/ha) was 6.0. The AMBEL ([4]; Rate 0.250 kg/ha) was 6.0, the AMBEL ([4]; Rate 0.500 kg/ha) was 7.0 and the ABUTH ([5]; Rate 0.016 kg/ha) was 4.0. The ABUTH ([5]; Rate 0.032 kg/ha) was 4.0, the ABUTH ([5]; Rate 0.063 kg/ha) was 5.0 and the ABUTH ([5]; Rate 0.125 kg/ha) was 5.0. For the same compound, the ABUTH ([5]; Rate 0.250 kg/ha) was 7.0, the ABUTH ([5]; Rate 0.500 kg/ha) was 9.0 and the CASOB (CASSIA OBTUSIFOLIA, L.; Rate 0.016 kg/ha) was 2.0. It also gave a CASOB (CASSIA OBTUSIFOLIA, L.; Rate 0.032 kg/ha) of 4.0, a CASOB (CASSIA OBTUSIFOLIA, L.; Rate 0.063 kg/ha) of 5.0 and a CASOB (CASSIA OBTUSIFOLIA, L.; Rate 0.125 kg/ha) of 8.0. The CASOB (CASSIA OBTUSIFOLIA, L.; Rate 0.250 kg/ha) was 9.0, the CASOB (CASSIA OBTUSIFOLIA, L.; Rate 0.500 kg/ha) was 6.5 and the TRZAWO ([6]; Rate 0.016 kg/ha) was 1.5. For the same compound, the TRZAWO ([6]; Rate 0.032 kg/ha) was 1.5, the TRZAWO ([6]; Rate 0.063 kg/ha) was 2.5 and the TRZAWO ([6]; Rate 0.125 kg/ha) was 3.0. It also gave a TRZAWO ([6]; Rate 0.250 kg/ha) of 3.5, a TRZAWO ([6]; Rate 0.500 kg/ha) of 3.5 and an ECHCG ([7]; Rate 0.016 kg/ha) of 0.0. It also gave an ECHCG ([7]; Rate 0.032 kg/ha) of 0.0, an ECHCG ([7]; Rate 0.063 kg/ha) of 0.0 and an ECHCG ([7]; Rate 0.125 kg/ha) of 1.0. The ECHCG ([7]; Rate 0.250 kg/ha) was 2.0 and the ECHCG ([7]; Rate 0.500 kg/ha) was 2.0.
